The record followed here is ChEMBL document CHEMBL5506041, “Identification of 1,3,4-Thiadiazolyl-Containing Thiazolidine-2,4-dione Derivatives as Novel PTP1B Inhibitors with Antidiabetic Activity” (J Med Chem, 2024).

The term IC50 denotes the midpoint of a concentration-inhibition curve.

Data set [1] concerns the target T1, Tyrosine-protein phosphatase non-receptor type 1 (Homo sapiens, UniProt P18031).
T1 sequence (P18031 whole entry): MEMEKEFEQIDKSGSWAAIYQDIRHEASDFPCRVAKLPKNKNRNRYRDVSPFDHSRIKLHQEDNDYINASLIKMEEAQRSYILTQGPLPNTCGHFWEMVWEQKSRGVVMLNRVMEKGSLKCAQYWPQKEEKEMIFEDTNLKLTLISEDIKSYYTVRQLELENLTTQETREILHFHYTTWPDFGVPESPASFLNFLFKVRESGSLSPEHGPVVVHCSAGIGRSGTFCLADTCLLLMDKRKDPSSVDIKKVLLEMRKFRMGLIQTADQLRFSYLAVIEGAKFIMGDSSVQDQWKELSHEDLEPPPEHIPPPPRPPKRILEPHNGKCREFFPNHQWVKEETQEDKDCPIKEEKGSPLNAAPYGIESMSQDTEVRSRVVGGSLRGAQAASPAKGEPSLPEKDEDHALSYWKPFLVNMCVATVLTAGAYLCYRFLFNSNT
The experiment in a line: Inhibition of PTP1B (unknown origin) using DiFMUP as substrate incubated for 10 mins by fluorescence based analysis.

For a further data set, the system named is HEK293. The experiment in a line: Cytotoxicity activity against HEK293 cells upto 32 uM by MTT assay. It is filed as toxicity, cell-based. Particulars: human, hek293, 32 µM. In general terms: Tetrazolium assays rely on reduction of a dye to a coloured formazan, in cell work by metabolically active cells.
For data set [2], the system named is HepG2. Kind of data set: Inhibition of insulin resistance in palmitic acid-induced human HepG2 cells assessed as upregulation of IRS1 expression incubated for 24 hrs followed by insulin addition for 10 mins. Particulars: dose 2-20 µM. The class given is functional, cell-based.
The target of data set [3] is T2, Tyrosine-protein phosphatase non-receptor type 1 (Homo sapiens) (UniProt P18031).
T2 sequence (whole entry): T1 sequence (P18031 whole entry)
Kind of data set: Potency index, ratio of lithocholic acid IC50 to test compound IC50 for inhibition of PTP1B (unknown origin) using DiFMUP as substrate incubated for 10 mins by fluorescence based analysis.

Data set [4] deals with HepG2. The experiment in a line: Inhibition of insulin resistance in palmitic acid-induced human HepG2 cells assessed as upregulation of AKT expression incubated for 24 hrs followed by insulin addition for 10 mins. The class given is functional, cell-based. As to conditions: dose 2-20 µM.
Data set [5] concerns Mus musculus. The experiment in a line: Anti-diabetic activity in streptozotocin-induced C57/6J mouse model assessed as reduction in total cholesterol level in serum at 25 to 50 mg/kg, ip administered for 4 weeks. The class given is functional, organism-based. Particulars: dose 25-50 mg/kg.
In data set [6] the test system is Mus musculus. The experiment in a line: Anti-diabetic activity in streptozotocin-induced C57/6J mouse model assessed as reduction in fasted blood glucose level at 50 mg/kg, ip preadministered with compound for 3 weeks followed by fasting for 12 hrs and measured after 120 mins post glucose administration by OGTT analysis. The class given is functional, organism-based. As to conditions: time 518.0 hrs.

Data set [7] has as its target T2, Tyrosine-protein phosphatase non-receptor type 1 (Homo sapiens). The experiment in a line: Noncompetitive inhibition of PTP1B1 (unknown origin) upto 1 uM by Lineweaver-burk plot analysis.
Data set [8] has the same target. Kind of data set: Reversible inhibition of PTP1B1 (unknown origin) upto 1 uM by Lineweaver-burk plot analysis.
Data set [9] has as its system Mus musculus. Kind of data set: Hypoglycemic activity in streptozotocin-induced C57/6J mouse model assessed as reduction in fasting blood glucose level at 25 to 50 mg/kg, ip administered once a week and fasted for 12 hrs. Particulars: dose 25-50 mg/kg. The class given is functional, organism-based.
A further data set has as its system L02. The experiment in a line: Cytotoxicity activity against human L02 cells upto 32 uM by MTT assay. It is filed as toxicity, cell-based. As to conditions: l02, 32 µM.
Data set [10] concerns Mus musculus. The experiment in a line: Anti-diabetic activity in streptozotocin-induced C57/6J mouse model assessed as reduction in triglyceride level in serum at 25 to 50 mg/kg, ip administered for 4 weeks. It is filed as functional, organism-based. As to conditions: dose 25-50 mg/kg.
In data set [11] the test system is Mus musculus. The experiment in a line: Hypoglycemic activity in streptozotocin-induced C57/6J mouse model assessed as reduction in fasting blood glucose level at 50 mg/kg, ip administered once a week and fasted for 12 hrs. The class given is functional, organism-based.

Structures are written as SMILES. Calls of active or inactive are those of the source. The calls are words filed in the database; no cut-off is given here.

`O=C1NC(=O)/C(=C/c2ccc(C(=O)Nc3nnc(SCc4ccc(F)c(F)c4)s3)cc2)S1` yielded an IC50 in data set [1] of 750 nM.

`O=C1NC(=O)/C(=C/c2ccc(C(=O)Nc3nnc(SCc4ccc(-c5ccccc5)cc4)s3)cc2)S1` came in with an IC50 in [1] of 1470 nM. `COC(=O)c1ccc(CSc2nnc(NC(=O)c3ccc(/C=C4/SC(=O)NC4=O)cc3)s2)cc1`: in data set [1], half-maximal inhibition (IC50) was put at 650 nM. The same measure, in the same setting: the value for `O=C1NC(=O)/C(=C/c2ccc(C(=O)Nc3nnc(SCc4ccc5ccccc5c4)s3)cc2)S1` was 3770 nM.

On to `N#Cc1ccccc1CSc1nnc(NC(=O)c2ccc(/C=C3/SC(=O)NC3=O)cc2)s1`, for which it took 2170 nM to reach half-maximal inhibition in data set [1] (IC50).

For the compound `O=C1NC(=O)/C(=C\c2ccc(C(=O)Nc3nnc(SCc4ccccc4Br)s3)cc2)S1`, 1870 nM corresponded to half-maximal inhibition in data set [1] (IC50). Regarding `C[C@H](CCC(=O)O)[C@H]1CC[C@H]2[C@@H]3CC[C@@H]4C[C@H](O)CC[C@]4(C)[C@H]3CC[C@]12C` [LITHOCHOLIC ACID], in data set [1], the IC50 was found to be 9620 nM. Same read-out and setting: the value for `O=C1NC(=O)/C(=C/c2ccc(C(=O)Nc3nnc(SCc4ccc5ncccc5c4)s3)cc2)S1` was 980 nM; that for `O=C1NC(=O)/C(=C\c2ccc(C(=O)Nc3nnc(SCc4cccc(Br)c4)s3)cc2)S1` was 890 nM. The same measure, in the same setting: to `O=C1NC(=O)/C(=C\c2ccc(C(=O)Nc3nnc(SCc4ccc(Cl)cc4)s3)cc2)S1` belongs 1390 nM. The same measure, in the same setting: the value for `O=C1NC(=O)/C(=C\c2ccc(C(=O)Nc3nnc(SCc4ccccc4Cl)s3)cc2)S1` was 2910 nM; that for `O=C1NC(=O)/C(=C\c2ccc(C(=O)Nc3nnc(SCc4ccccc4C(F)(F)F)s3)cc2)S1` was 1180 nM; that for `O=C1NC(=O)/C(=C/c2ccc(C(=O)Nc3nnc(SCc4cc(C(F)(F)F)cc(C(F)(F)F)c4)s3)cc2)S1` was 1730 nM. Turning to `Cc1ccc(CSc2nnc(NC(=O)c3ccc(/C=C4/SC(=O)NC4=O)cc3)s2)cc1`, the IC50 in [1] amounted to 880 nM. Same read-out and setting: the value for `O=C1NC(=O)/C(=C\c2ccc(C(=O)Nc3nnc(SCc4ccc(F)cc4)s3)cc2)S1` was 1840 nM. Regarding `N#Cc1ccc(CSc2nnc(NC(=O)c3ccc(/C=C4/SC(=O)NC4=O)cc3)s2)cc1`, the Activity result with HEK293 and in the data set with L02 was “Non-Toxic” each time. For the same compound, the inhibition entry with HepG2 [2] and in the data set on HepG2 [4] was “Dose-Dependent Effect” in each case. For the same compound, in [3], the Ratio IC50 amounted to 23.5. Further, the result with Mus musculus [5], with Mus musculus [6], in the data set on Mus musculus [9] and with Mus musculus [10] was Active. For the same compound, the inhibition result in data set [7] and in data set [8] was “Active” each time. This compound came in with an IC50 in data set [1] of 410 nM. `O=C1NC(=O)/C(=C\c2ccc(C(=O)Nc3nnc(SCc4cccc(OC(F)(F)F)c4)s3)cc2)S1` registered an IC50 in data set [1] of 1480 nM.

In [1], `O=C1NC(=O)/C(=C\c2ccc(C(=O)Nc3nnc(SCc4ccccc4[N+](=O)[O-])s3)cc2)S1` came in with an IC50 of 4090 nM.

`Cc1ccccc1CSc1nnc(NC(=O)c2ccc(/C=C3/SC(=O)NC3=O)cc2)s1` had an IC50 in [1] of 4680 nM. On to `O=C1NC(=O)/C(=C\c2ccc(C(=O)Nc3nnc(SCc4ccccc4-c4ccccc4)s3)cc2)S1`, for which, in data set [1], the IC50 amounted to 3560 nM. In data set [1], `O=C1NC(=O)/C(=C\c2ccc(C(=O)Nc3nnc(SCc4ccccc4F)s3)cc2)S1` yielded an IC50 of 1850 nM. Regarding `O=C1NC(=O)/C(=C\c2ccc(C(=O)Nc3nnc(SCc4cccc(Cl)c4)s3)cc2)S1`, the IC50 in data set [1] was 1640 nM. Take `O=C1NC(=O)/C(=C/c2ccc(C(=O)Nc3nnc(SCc4ccc(F)cc4Cl)s3)cc2)S1`: the IC50 in data set [1] came out at 1070 nM. For `O=C1NC(=O)/C(=C\c2ccc(C(=O)Nc3nnc(SCc4ccccc4)s3)cc2)S1`, the IC50 in data set [1] turned out to be 1270 nM.

In data set [1], `O=C1NC(=O)/C(=C/c2ccc(C(=O)Nc3nnc(SCc4ccc(F)c(F)c4F)s3)cc2)S1` displayed an IC50 of 1130 nM. With `N#Cc1cccc(CSc2nnc(NC(=O)c3ccc(/C=C4/SC(=O)NC4=O)cc3)s2)c1`, in [1], the IC50 came out at 610 nM. Turning to `O=C1NC(=O)/C(=C\c2ccc(C(=O)Nc3nnc(SCc4ccc(Br)cc4)s3)cc2)S1`, in data set [1], half-maximal inhibition (IC50) required 590 nM.

`Cc1cccc(CSc2nnc(NC(=O)c3ccc(/C=C4/SC(=O)NC4=O)cc3)s2)c1`: the IC50 in [1] worked out at 3850 nM. Turning to `O=C1NC(=O)/C(=C\c2ccc(C(=O)Nc3nnc(SCc4ccc([N+](=O)[O-])cc4)s3)cc2)S1`, in data set [1], the IC50 came to 1820 nM.

Take `CS(=O)(=O)c1ccc(CSc2nnc(NC(=O)c3ccc(/C=C4\SC(=O)NC4=O)cc3)s2)cc1`: in data set [1], the IC50 turned out to be 1410 nM.

In data set [1], `O=C1NC(=O)/C(=C/c2ccc(C(=O)Nc3nnc(SCc4ccc(F)c(Cl)c4)s3)cc2)S1` came in with an IC50 of 820 nM. The compound `O=C1NC(=O)/C(=C/c2ccc(C(=O)Nc3nnc(SCc4ccc(F)cc4F)s3)cc2)S1` yielded an IC50 in [1] of 1240 nM.

`COc1cccc(CSc2nnc(NC(=O)c3ccc(/C=C4/SC(=O)NC4=O)cc3)s2)c1` returned an IC50 in data set [1] of 3220 nM. The same measure, in the same setting: to `O=C1NC(=O)/C(=C/c2ccc(C(=O)Nc3nnc(SCc4ccc(C(F)(F)F)cc4)s3)cc2)S1` belongs 910 nM; to `COC(=O)c1cccc(CSc2nnc(NC(=O)c3ccc(/C=C4/SC(=O)NC4=O)cc3)s2)c1`, 1120 nM; to `COC(=O)c1ccccc1CSc1nnc(NC(=O)c2ccc(/C=C3/SC(=O)NC3=O)cc2)s1`, 1210 nM.

On to `O=C1NC(=O)/C(=C\c2ccc(C(=O)Nc3nnc(SCc4ccccc4OC(F)(F)F)s3)cc2)S1`, for which the half-maximal inhibitory concentration (IC50) in [1] came to 1320 nM. Same read-out and setting: to `O=C1NC(=O)/C(=C\c2ccc(C(=O)Nc3nnc(SCc4ccc(OC(F)(F)F)cc4)s3)cc2)S1` belongs 890 nM; to `O=C1NC(=O)/C(=C\c2ccc(C(=O)Nc3nnc(SCc4cccc([N+](=O)[O-])c4)s3)cc2)S1`, 3760 nM; to `O=C1NC(=O)/C(=C\c2ccc(C(=O)Nc3nnc(SCc4cccc(C(F)(F)F)c4)s3)cc2)S1`, 1070 nM. Take `C[C@H]1O[C@H](O[C@H]2[C@H](O)[C@@H](O)[C@@H](O[C@H]3[C@H](O)[C@@H](O)C(O)O[C@@H]3CO)O[C@@H]2CO)[C@H](O)[C@@H](O)[C@@H]1N[C@H]1C=C(CO)[C@@H](O)[C@H](O)[C@H]1O` (some centres undefined): the result with Mus musculus [11] was Active. With `CC(C)(C)c1ccc(CSc2nnc(NC(=O)c3ccc(/C=C4\SC(=O)NC4=O)cc3)s2)cc1`, the IC50 in data set [1] is 1350 nM. As to `O=C1NC(=O)/C(=C\c2ccc(C(=O)Nc3nnc(SCc4cccc(F)c4)s3)cc2)S1`, inhibition in data set [1] was half-maximal at 2080 nM (IC50).
